The values below are quoted from earlier work in patent US12527845B2, “Formulations” (Arecor Limited, priority 2016, dated 2026).

The conditions of the series: 25° C.
Turning to `NCCNCCN` [DETA, diethylenetriamine], the “log K with respect to zinc ion binding” value is recorded as 8.88.

Consider `O=C(O)CN(CCN(CC(=O)O)CC(=O)O)CC(=O)O` [EDTA, ethylenediaminetetraacetate], for which the “log K with respect to zinc ion binding” value is given as 14.5.

Take `O=C(O)CN(CCOCCOCCN(CC(=O)O)CC(=O)O)CC(=O)O` [EGTA, ethyleneglycoltetraacetate]: the “log K with respect to zinc ion binding” value is recorded as 12.6.

In the case of `NCCNCCNCCN` [TETA, triethylenetetramine], the “log K with respect to zinc ion binding” value is given as 11.95.

In the case of `O=C(O)CC(O)(CC(=O)O)C(=O)O` [citrate], the “log K with respect to zinc ion binding” value is 4.93.

Consider `N[C@@H](CS)C(=O)O` [cysteine], for which the “log K with respect to zinc ion binding” value is given as 9.11.

Take `N[C@@H](CSSC[C@H](N)C(=O)O)C(=O)O` [cystine]: the “log K with respect to zinc ion binding” value was 6.67.

With `NCCN` [ethylenediamine], the “log K with respect to zinc ion binding” value is on record as 5.69.

As for `N[C@@H](CCC(=O)O)C(=O)O` [glutamate], the “log K with respect to zinc ion binding” value is reported as 4.62.

Take `N[C@@H](CCC(=O)N[C@@H](CS)C(=O)NCC(=O)O)C(=O)O` [glutathione]: the “log K with respect to zinc ion binding” value is recorded as 7.98.

`N[C@@H](Cc1c[nH]cn1)C(=O)O` [histidine]: the “log K with respect to zinc ion binding” value is recorded as 6.51.

For the compound `O=P(O)(O)OP(=O)(O)O` [pyrophosphate], the “log K with respect to zinc ion binding” value was 8.71.
